Measurements reported in ChEMBL document CHEMBL2029216, “Synthesis and evaluation of [18F]Fluorobutyl ethacrynic amide: a potential PET tracer for studying glutathione transferase” (Bioorg Med Chem Lett, 2012).

Legend:
MCF7 = experiment: Cytotoxicity against human MCF7 cells; assay type: functional, cell-based
A549 = experiment: Cytotoxicity against human A549 cells; assay type: functional, cell-based
IMR-90 = experiment: Cytotoxicity against human IMR90 cells; assay type: cell-based
Urinary bladder = experiment: Drug uptake in mouse bladder after 5 mins; assay type: ADME, tissue-based; conditions: in vivo
[1] = Drug uptake in 18 weeks TAA treated rat TAA-induced cholangiocarcinoma model tumor expressing GSTalpha assessed as hot spot using [18F]FDG at 486 uCi/0.23 mL, iv after 30 mins by PET analysis; assay type: ADME, organism-based, Neoplasm; conditions: in vivo, 0.5 h
Liver [2] = experiment: Drug uptake in Sprague-Dawley rat liver expressing GSTalpha assessed as homogeneous distribution of [18F]FBuEA-GSH10 complex at 717 uCi/mL, iv after 120 mins by PET analysis; assay type: ADME, organism-based; conditions: in vivo, 2 h
Kidney = experiment: Drug uptake in mouse kidney after 5 mins; assay type: ADME, tissue-based; conditions: in vivo
[3] = Drug uptake in TAA-induced cholangiocarcinoma model of rat tumor expressing GSTalpha assessed as cold spot using [18F]FDG at 486 uCi/0.23 mL, iv after 5 days by PET analysis; assay type: ADME, organism-based, Neoplasm; conditions: in vivo, 120 h
[4] = Octanol-water partition coefficient, Log P of the compound at 12.6 uCi by Shake-flask method; assay type: physicochemical
Liver [5] = experiment: Drug uptake in mouse liver after 5 mins; assay type: ADME, tissue-based; conditions: in vivo
Liver [6] = experiment: Drug uptake in TAA-induced cholangiocarcinoma model of rat liver expressing GSTalpha assessed as heterogeneous distribution of [18F]FBuEA-GSH10 complex at 569 uCi/0.6 mL, iv after 120 mins by PET analysis; assay type: ADME, organism-based; conditions: in vivo, 2 h
[7] = Drug uptake in 23 weeks TAA treated rat TAA-induced cholangiocarcinoma model tumor expressing GSTalpha assessed as cold spot using [18F]FDG at 801 uCi/0.23 mL, iv after 5 to 10 mins by PET analysis; assay type: ADME, organism-based, Neoplasm; conditions: in vivo
[8] = Half life in rat plasma at 6.3 MBq, iv by HPLC analysis; assay type: ADME, organism-based
Nucleic Acid = experiment: Ratio of drug level in tumor to liver in rat TAA-induced cholangiocarcinoma model; assay type: ADME, tissue-based; conditions: in vivo

SMILES: C=C(CC)C(=O)c1ccc(OCC(=O)NCCCC)c(Cl)c1Cl
- IC50 (MCF7): 4 µM
- IC50 (A549): 13 µM

SMILES: C=C(CC)C(=O)c1ccc(OCC(=O)NCCCCF)c(Cl)c1Cl
- IC50 (MCF7): 3 µM
- IC50 (IMR-90): 18 µM
- IC50 (A549): 8 µM

SMILES: C=C(CC)C(=O)c1ccc(OCC(=O)NCCCC[18F])c(Cl)c1Cl
- Drug uptake (Urinary bladder): Active
- Drug uptake [1]: Active
- Drug uptake (Liver [2]): Active
- Drug uptake (Kidney): Active
- Drug uptake [3]: Active
- logP [4]: 1.47
- Drug uptake (Liver [5]): Active
- Drug uptake (Liver [6]): Active
- Drug uptake [7]: Active

SMILES: C=C(CC)C(=O)c1ccc(OCC(=O)O)c(Cl)c1Cl [ETHACRYNIC ACID]
- half-life [8]: 30 min
- IC50 (A549): 84 µM

SMILES: OC[C@H]1O[C@@H](O)[C@H]([18F])[C@@H](O)[C@@H]1O [FLUDEOXYGLUCOSE-F18]
- Ratio (Nucleic Acid): 1.6
